Experimental data: patent US20250034216A1, “STEREOSELECTIVE COVALENT LIGANDS FOR ONCOGENIC AND IMMUNOLOGICAL PROTEINS” (The Scripps Research Institute, priority 2021, published 2025)

What was measured:
Assay in all cases: IA-DTB cysteine engagement
Assay type in all cases: binding
Settings in all cases: 22Rv1 cells, 20 μM probe, 1 h, relative to DMSO
[1] = target: T1, PNPLA8_C100 (Homo sapiens, UniProt Q9NP80)
T1 construct: endogenous in cells; host or cells: 22Rv1
T1 sequence (Q9NP80 1-782): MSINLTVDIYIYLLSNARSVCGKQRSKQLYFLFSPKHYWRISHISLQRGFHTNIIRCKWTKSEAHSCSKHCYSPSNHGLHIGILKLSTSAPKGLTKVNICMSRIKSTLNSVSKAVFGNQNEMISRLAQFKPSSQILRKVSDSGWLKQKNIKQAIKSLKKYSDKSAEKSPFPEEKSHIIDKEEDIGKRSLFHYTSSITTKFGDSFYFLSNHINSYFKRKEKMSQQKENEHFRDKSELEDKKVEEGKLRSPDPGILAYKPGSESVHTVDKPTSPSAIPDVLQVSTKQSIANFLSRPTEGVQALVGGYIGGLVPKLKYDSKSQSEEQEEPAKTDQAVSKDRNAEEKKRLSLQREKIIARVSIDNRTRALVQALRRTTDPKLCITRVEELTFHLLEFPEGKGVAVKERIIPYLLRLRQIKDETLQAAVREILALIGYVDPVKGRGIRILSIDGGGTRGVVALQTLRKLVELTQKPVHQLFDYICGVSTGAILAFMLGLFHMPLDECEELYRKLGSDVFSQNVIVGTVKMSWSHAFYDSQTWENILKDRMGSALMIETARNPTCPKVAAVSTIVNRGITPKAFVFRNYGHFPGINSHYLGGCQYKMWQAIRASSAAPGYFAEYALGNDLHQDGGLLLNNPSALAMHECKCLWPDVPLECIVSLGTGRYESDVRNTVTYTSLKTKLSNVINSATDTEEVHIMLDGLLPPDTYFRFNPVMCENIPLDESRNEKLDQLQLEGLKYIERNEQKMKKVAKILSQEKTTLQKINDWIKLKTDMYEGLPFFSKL
In short: (§1)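 First, cells are exposed to electrophilic probes in situ. Next, lysates are labeled with IA-DTB (1 h, ambient temperature), reduced, alkylated and trypsin-digested. Then, IA-DTB peptides are enriched on streptavidin, TMT-labeled and analyzed, with ratios taken against DMSO channels.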

[2] = target: T2, SNX11_C181 (Homo sapiens, UniProt Q9Y5W9)
T2 construct: endogenous in cells; host or cells: 22Rv1
T2 sequence (Q9Y5W9 1-270): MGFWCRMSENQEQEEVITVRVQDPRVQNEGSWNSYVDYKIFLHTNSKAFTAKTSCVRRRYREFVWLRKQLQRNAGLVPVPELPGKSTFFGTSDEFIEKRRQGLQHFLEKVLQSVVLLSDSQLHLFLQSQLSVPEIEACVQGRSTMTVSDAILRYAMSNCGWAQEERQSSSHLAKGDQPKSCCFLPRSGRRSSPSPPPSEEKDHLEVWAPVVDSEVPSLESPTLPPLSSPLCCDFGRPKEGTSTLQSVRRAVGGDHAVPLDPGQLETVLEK
In short: as §1

[3] = target: T3, APOOL_C79 (Homo sapiens, UniProt Q6UXV4)
T3 construct: endogenous in cells; host or cells: 22Rv1
T3 sequence (Q6UXV4 28-268): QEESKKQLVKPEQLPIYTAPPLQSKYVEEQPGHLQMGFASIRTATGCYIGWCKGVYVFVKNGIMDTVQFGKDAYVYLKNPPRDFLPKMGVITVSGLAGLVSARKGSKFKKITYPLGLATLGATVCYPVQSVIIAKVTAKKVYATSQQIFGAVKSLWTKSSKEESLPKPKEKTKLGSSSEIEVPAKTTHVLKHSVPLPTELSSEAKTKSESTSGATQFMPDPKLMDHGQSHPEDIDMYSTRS
In short: as §1

| % engagement PNPLA8_C100 [1] [%] | % engagement SNX11_C181 [2] [%] | % engagement APOOL_C79 [3] [%] | Structure (SMILES) |
| --- | --- | --- | --- |
| 67 | 54.5 | 54.25 | C=CC(=O)N1C[C@@H](c2ccc(Br)cc2)[C@H]1C(=O)Nc1cccc2cccnc12 [MY-1A, (2S,3R)-1-acryloyl-3-(4-bromophenyl)-N-(quinolin-8-yl)azetidine-2-carboxamide] |
| 59.5 | 68.5 | 73 | C=CC(=O)N1C[C@H](c2ccc(Br)cc2)[C@@H]1C(=O)Nc1cccc2cccnc12 [MY-1B, (2R,3S)-1-acryloyl-3-(4-bromophenyl)-N-(quinolin-8-yl)azetidine-2-carboxamide] |
| 70.5 | 23 | 69 | C=CC(=O)N1C[C@H](c2ccc(Br)cc2)[C@H]1C(=O)Nc1cccc2cccnc12 [MY-3B, (2S,3S)-1-acryloyl-3-(4-bromophenyl)-N-(quinolin-8-yl)azetidine-2-carboxamide] |
| 48 | 17 | 48 | C=CC(=O)N1C[C@H](c2ccc(Br)cc2)[C@H]1C(=O)Nc1cccc2cccnc12 [MY-3A, (2S,3S)-1-acryloyl-3-(4-bromophenyl)-N-(quinolin-8-yl)azetidine-2-carboxamide] |
